Measurements from patent publication US12286437B2, “Cardiac sarcomere inhibitors” (Cytokinetics, Inc., priority 2021, dated 2025).

Columns and labels:
[1] = system: bovine cardiac myofibrils; assay: Myofibril assay (ATPase activity of skinned bovine cardiac myofibrils, PK/LDH-coupled); format: biochemical; details: inhibition of steady-state ATPase of bovine cardiac myofibrils; CaCl2 for 50% or 75% activation
Description: To evaluate the effect of compounds on the ATPase activity of full-length cardiac myosin in the context of the native sarcomere, skinned myofibril assays were performed. Bovine cardiac myofibrils were obtained by homogenizing bovine cardiac left ventricular tissue in the presence of a detergent such as triton X-100. Such treatment removes membranes and a majority of the soluble cytoplasmic proteins but leaves intact the cardiac sarcomeric acto-myosin apparatus. Myofibril preparations retain the ability to hydrolyze ATP in a Ca^2+ regulated manner. ATPase activities of such myofibril preparations in the presence and absence of compounds were assayed at Ca^2+ concentrations activating to a defined fraction of the maximal rate (i.e., […], 75%). Small molecule agents were assessed for their ability to inhibit the steady-state ATPase activity of bovine cardiac myofibrils using pyruvate kinase and lactate dehydrogenase (PK/LDH)-coupled enzyme system. This assay regenerates myosin-produced ADP into ATP by oxidizing NADH, producing an absorbance change at 340 nm. Prior to testing small molecule agents, the bovine cardiac myofibrils were assessed for their calcium responsiveness and the calcium concentration that achieves either a 50% (pCa50) or 75% (pCa75) activation of the myofibril system was chosen as the final condition for assessing the inhibitory activity of the small molecule agents. All enzymatic activity was measured in a buffered solution containing 12 mM PIPES (piperazine-N,N′-bis(2-ethanesulfonic acid), 2 mM magnesium chloride at pH 6.8 (PM 12 buffer). Final assay conditions were 1 mg/mL of bovine cardiac myofibrils, 4 U/mL pyruvate kinase, 6 U/mL lactate dehydrogenase, 50 μM ATP, 0.1 mg/mL BSA (bovine serum albumin), 10 ppm antifoam, 1 mM DTT, 0.5 mM NADH, 1.5 mM PEP, 0.6 mM EGTA, and an amount of CaCl2 sufficient to achieve either 50% or 75% activation of the myofibril ATPase activity. Results for compounds tested are provided in Table A. Compounds tested were prepared in accordance with the synthetic procedures described herein.

[2] = Dog single dose pharmacokinetics; format: in vivo, beagle dogs; details: male, beagle, plasma, IV, read-out: t½ (converted)
Description: Non-naïve male beagle dogs (8 months-3 years of age, body weight 8-13 kg) were used in this study. All animals for IV administration had free access to food and water; all animals for PO were fasted overnight prior to dosing and were fed approximately 6 hours after dosing. For the animals in PO group, pentagastrin (6.0 μg/kg, i.m.) was administrated 20 minutes before dosing PO formulation and 1.5 hours after the first pentagastrin dosing. The dosing volume was 0.024 mL/kg, the concentration was 250 μg/mL in DMSO/1 N NaOH/PBS. 10 mL of 0.001 N HCl was used to wash the gavage catheter for each animal. The IV dose solution was prepared in 10% DMA/50% PG/40% HPβCD solution (40% w/v aqueous HPβCD) at a concentration of 1.0 mg/mL. The oral dose suspension was prepared by suspending the compound in 0.5% HPMC/0.1% Tween 80 in distilled water at a concentration of 0.2 mg/mL. Concentrations of IV and PO doses were measured at the end of the study. PK parameters were calculated using the nominal dose values if the measured values were within 20% of the nominal values. Blood samples were collected by venipuncture of peripheral veins except the dosing vein at pre-dose, 5 15, 30 min, 1, 2, 4, 6, 8, 24 and 48 h post-dose. Blood samples were centrifuged and resultant plasma was frozen for bioanalysis. Plasma samples were stored at −80° C. before analysis. Plasma samples were analyzed for compound concentrations using the LC/MS/MS method. Briefly, a 50 μL aliquot of each plasma sample was mixed with 100 μL of acetonitrile that contained an internal standard. The mixture was vortexed and centrifuged. Ten (10) μL of the resulting solution was injected onto a reverse-phase C18 column and the resultant peaks detected on a LC/MS/MS equipped with a turbo ionspray ionization source. Sample concentrations below the limit of quantification (BLQ) were treated as zero for PK calculations. PK parameters were estimated from individual animals using noncompartmental analysis of the concentration-time data (Phoenix WinNonLin software, version 64; Pharsight, Mountain View, CA). The elimination rate constant (k) was calculated as the absolute value of the slope of the linear regression of logarithm (log) of the concentration versus time for the last three data points of the concentration-time profiles. Apparent elimination half-life (t1/2) values were calculated as ln(2)/k. Area under the concentration-time curve (AUC) values were estimated using linear trapezoidal method. AUCt values were calculated from the dosing time to the last measurable concentration. AUC∞ values were calculated as the sum of the corresponding AUCt and the ratio of the last detectable concentration divided by k. Plasma clearance (CL) was calculated from Dose/AUC∞. Mean resident time extrapolated to infinity (MRT∞) was estimated by moment analysis. Vss was calculated from MRT∞×CL. Maximum concentration (Cmax) and time to reach Cmax (tmax) were recorded as observed. As this was a cross-over study, bioavailability was calculated dAUC∞,po/dAUC∞,iv×100% where dAUC was the dose normalized AUC value from the same animal given IV and PO dose. Data for compounds tested are provided in Table D. Compounds tested were prepared in accordance with the synthetic procedures described herein.

[3] = Projected single-dose CL and Vss values in humans (allometric scaling of mouse, rat, dog, monkey IV PK); details: human, projected by allometric scaling from single-dose IV PK
Description: Allometric scaling for the prediction of human Clearance and Volume of Distribution was based on interspecies simple allometric scaling of mouse, rat, dog, and cynomolgus monkey intravenous pharmacokinetic parameters (Boxenbaum, J Pharmacokinet Biopharm 10:201-27, 1982). Prediction of human CL was performed by extrapolating pre-clinical species' plasma intravenous clearance. The ‘rule of exponents’ (Mahmood & Balian, Life Sci 59:579-85, 1996) was examined in this prediction, where it has been proposed that, when the exponent of simple allometry lies between […] and 0.99, a correction factor based on Maximum Life Span (MLP) of this species can be applied and, when the exponent of simple allometry is greater than 1.0, a correction factor based on Brain Weight (BrW) can be applied, or a protein binding correction can be applied when available. In a similar manner, simple allometric scaling was employed to predict human Volume of Distribution. This method has been used successfully for varied drugs (Ward & Smith, Drug Metab Dispos 32:612-19, 2004; McGinnity et al., Curr Drug Metab 8:463-79, 2007).

[4] = molecular target: T1, CYP3A4 (Homo sapiens, UniProt P08684); assay: Time-dependent inhibition of CYP3A4 in human liver microsomes (testosterone and midazolam probes); format: in vitro ADME; details: for (% Activity NADPH T0)/(% Activity NADPH T30): fold change
T1 construct: Pooled human microsomes and selective CYP probe substrates were used; from tissue; host or cells: pooled human liver microsomes
Description: An assessment of the time-dependent Inhibitory Potential of the test compounds against Principal Human Cytochrome P450 Isozymes using Human Liver Microsomes was also carried out using standard methods (Grimm et al, Drug Metab. Dispos., July; 37(7):1355-70. doi: 10.1124/dmd.109.026716, 2009). Pooled human microsomes and selective CYP probe substrates were used for in vitro assessment of test compounds at 25 and 50 μM as time-dependent inhibitors of […] human hepatic cytochrome P450 isozymes (CYP1A2, 2B6, 2C9, 2C19, 2D6, and 3A4). LC-MS/MS was used to quantify metabolite formation. The inhibition of each P450 enzyme in human liver microsomes was measured as the percentage decrease in the activity of marker metabolite formation as measured by LC-MS/MS compared to non-inhibited controls (=100% activity) at time zero and after 30 minutes incubation. The occurrence of any time dependent inhibition was then expressed as the fold change in enzyme activity at time zero relative to the activity after 30 minutes incubation.

T1 sequence (P08684 whole entry): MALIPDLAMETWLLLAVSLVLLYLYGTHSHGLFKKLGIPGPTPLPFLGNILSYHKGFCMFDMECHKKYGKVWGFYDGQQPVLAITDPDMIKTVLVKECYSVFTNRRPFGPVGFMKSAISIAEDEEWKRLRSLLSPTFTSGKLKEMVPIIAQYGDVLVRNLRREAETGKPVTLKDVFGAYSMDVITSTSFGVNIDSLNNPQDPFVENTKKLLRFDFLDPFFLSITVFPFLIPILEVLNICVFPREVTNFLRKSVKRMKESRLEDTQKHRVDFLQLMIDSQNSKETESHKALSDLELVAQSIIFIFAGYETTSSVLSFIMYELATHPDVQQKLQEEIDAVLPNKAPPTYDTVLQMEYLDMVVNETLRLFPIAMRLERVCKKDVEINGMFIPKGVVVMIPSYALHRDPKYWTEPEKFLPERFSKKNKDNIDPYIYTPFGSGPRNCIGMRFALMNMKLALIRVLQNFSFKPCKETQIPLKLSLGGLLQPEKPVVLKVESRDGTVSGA

SMILES | CDMF IC15 [1] [µM] | half-life [2] [h] | Projected CL [3] [mL/min/kg] | Projected Vss [3] [L/kg] | Projected t½ [3] [h] | (% Activity NADPH T0)/(% Activity NADPH T30) ([4]; CYP3A4-M (midazolam probe substrate), 25 μM) | (% Activity NADPH T0)/(% Activity NADPH T30) ([4]; CYP3A4-M (midazolam probe substrate), 50 μM) | (% Activity NADPH T0)/(% Activity NADPH T30) ([4]; CYP3A4-T (testosterone probe substrate), 25 μM) | (% Activity NADPH T0)/(% Activity NADPH T30) ([4]; CYP3A4-T (testosterone probe substrate), 50 μM) | change in fold activity of 3A4 (time dependent inhibition) ([4]; both midazolam and testosterone probes, 25 and 50 μM) [fold]
O=C1[C@H](C2COC2)N(Cc2ccc(C(F)(F)F)cc2)C(=O)CN1c1ncc(Cl)cc1F [Comparator C, (S)-1-(5-chloro-3-fluoropyridin-2-yl)-3-(oxetan-3-yl)-4-(4-(trifluoromethyl)benzyl)piperazine-2,5-dione, reference compound] | 1.1 | 14.7 | 3.9 | 13.9 | 41 | 1.6 | 1.7 | 1.8 | 1.8 | > 1.5
O=CN1CC2(C1)C(=O)N(c1ccc(F)cc1F)CC(=O)N2Cc1ccc(Cl)cc1 [Comparator A, 5-(4-chlorobenzyl)-8-(2,4-difluorophenyl)-6,9-dioxo-2,5,8-triazaspiro[3.5]nonane-2-carbaldehyde, reference compound] | 1.8 | 39.2 | 1.44 |  | 38.7 |  |  |  |  | 
CC(=O)N1CC2(C1)C(=O)N(c1ccc(C#N)cc1F)CC(=O)N2Cc1ccc(C(F)(F)F)cc1 [Comparator D, 4-(2-acetyl-6,9-dioxo-5-(4-(trifluoromethyl)benzyl)-2,5,8-triazaspiro[3.5]nonan-8-yl)-3-fluorobenzonitrile] | 1.1 | 23.7 | 0.96 | 5.16 | 62 |  |  |  |  | 
O=CN1CC2(C1)C(=O)N([C@H]1CC[C@H](C(F)F)CC1)CC(=O)N2Cc1ccc(C(F)(F)F)cc1 [Comparator E, 8-((1r,4r)-4-(difluoromethyl)cyclohexyl)-6,9-dioxo-5-(4-(trifluoromethyl)benzyl)-2,5,8-triazaspiro[3.5]nonane-2-carbaldehyde] | 1.3 | 33.1 | 1.2 | 5.5 | 51.7 |  |  |  |  | 
